The values below come from ChEMBL document CHEMBL3739370, “Synthesis and evaluation of amide, sulfonamide and urea benzisoxazole derivatives as potential atypical antipsychotics” (Medchemcomm, 2015).

Data set [1] addresses 5-hydroxytryptamine receptor 2A (Rattus norvegicus, UniProt P14842). The data set can be described thus: Displacement of [3H]ketanserin from 5HT2A receptor in rat brain cortex. It is filed as tissue-based. In general terms: In a radioligand displacement assay an active substance lowers the binding of a labelled ligand.
In data set [2] the target is T1, 5-hydroxytryptamine receptor 1A (Rattus norvegicus, UniProt P19327).
T1 sequence (P19327 whole entry): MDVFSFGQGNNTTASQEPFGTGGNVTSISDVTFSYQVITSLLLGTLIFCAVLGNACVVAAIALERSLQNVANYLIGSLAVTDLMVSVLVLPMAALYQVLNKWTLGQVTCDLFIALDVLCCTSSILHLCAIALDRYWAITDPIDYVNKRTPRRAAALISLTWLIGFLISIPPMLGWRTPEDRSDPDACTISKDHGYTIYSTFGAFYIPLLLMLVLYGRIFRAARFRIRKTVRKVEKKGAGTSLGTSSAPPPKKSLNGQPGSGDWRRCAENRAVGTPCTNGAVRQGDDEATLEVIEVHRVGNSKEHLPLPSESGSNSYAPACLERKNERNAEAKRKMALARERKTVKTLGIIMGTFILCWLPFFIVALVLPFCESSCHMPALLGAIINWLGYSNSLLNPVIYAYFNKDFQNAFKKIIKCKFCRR
The data set can be described thus: Displacement of [3H]8-OH-DPAT from 5HT1A receptor in rat brain cortex. It is filed as tissue-based.

In data set [3] the target is D(2) dopamine receptor (Rattus norvegicus, UniProt P61169). The data set is described as follows: Displacement of [3H]spiperone from dopamine D2 receptor in rat striatum.
Chain of D(2) dopamine receptor (P61169 whole entry): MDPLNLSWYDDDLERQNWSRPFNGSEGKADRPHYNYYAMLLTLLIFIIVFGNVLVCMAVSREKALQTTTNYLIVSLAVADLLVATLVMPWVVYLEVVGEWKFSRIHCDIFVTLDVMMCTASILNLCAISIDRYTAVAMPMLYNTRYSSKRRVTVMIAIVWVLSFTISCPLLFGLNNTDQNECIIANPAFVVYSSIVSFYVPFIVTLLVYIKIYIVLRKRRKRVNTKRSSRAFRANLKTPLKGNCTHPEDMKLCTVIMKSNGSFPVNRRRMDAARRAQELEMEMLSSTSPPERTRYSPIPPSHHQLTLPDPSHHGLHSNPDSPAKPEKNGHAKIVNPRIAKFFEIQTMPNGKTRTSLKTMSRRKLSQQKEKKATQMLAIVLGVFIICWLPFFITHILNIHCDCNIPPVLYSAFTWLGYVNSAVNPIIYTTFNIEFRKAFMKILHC
Data set [4] relates to Mus musculus. The data set is described as follows: Antipsychotic activity in po dosed mouse assessed as reversal of DOI-induced head twitch activity. It is filed as functional.
Data set [5] has as its system Mus musculus. The data set is described as follows: Antipsychotic activity in po dosed mouse assessed as reversal of MK-801-induced hyperactivity. Type of data set: functional.
Data set [6] has as its system Mus musculus. The data set can be described thus: Toxicity in po dosed mouse assessed as catalepsy. It is filed as organism-based. Particulars: in vivo.
The test system of data set [7] is Mus musculus. The data set can be described thus: Antipsychotic activity in po dosed mouse assessed as reversal of apomorphine-induced climbing activity. It is filed as functional.
Data set [8] has as its system Mus musculus. The data set is described as follows: Selectivity ratio of ED50 for po dosed mouse assessed as catalepsy to ED50 for po dosed mouse assessed as reversal of apomorphine-induced climbing activity.
Data set [9] has as its system Mus musculus. The data set is described as follows: Selectivity ratio of ED50 for po dosed mouse assessed as catalepsy to ED50 for po dosed mouse assessed as reversal of MK-801-induced hyperactivity.

Chain of 5-hydroxytryptamine receptor 2A (P14842 whole entry): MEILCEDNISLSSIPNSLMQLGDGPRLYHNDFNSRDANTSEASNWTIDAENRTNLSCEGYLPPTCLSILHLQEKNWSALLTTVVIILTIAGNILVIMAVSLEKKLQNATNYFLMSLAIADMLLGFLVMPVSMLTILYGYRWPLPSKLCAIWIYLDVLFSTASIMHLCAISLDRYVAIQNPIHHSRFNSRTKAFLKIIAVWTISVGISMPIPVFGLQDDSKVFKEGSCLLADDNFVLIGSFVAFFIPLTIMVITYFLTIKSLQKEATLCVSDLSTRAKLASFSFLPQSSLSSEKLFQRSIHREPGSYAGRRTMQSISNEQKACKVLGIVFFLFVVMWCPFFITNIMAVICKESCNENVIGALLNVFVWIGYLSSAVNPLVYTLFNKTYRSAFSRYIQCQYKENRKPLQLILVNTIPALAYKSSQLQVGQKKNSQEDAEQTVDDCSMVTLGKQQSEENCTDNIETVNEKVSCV

Consider `Cc1ccc(S(=O)(=O)N2CCC(CN3CCC(c4noc5cc(F)ccc45)CC3)CC2)cc1`, for which the Ki in [1] is 1520 nM; in [2], greater than 10000 nM; in data set [3], 1290 nM.

For `COc1ccc(C(=O)N2CCC(CN3CCC(c4noc5cc(F)ccc45)CC3)CC2)cc1`, the Ki in data set [1] stood at 121 nM; in [2], 2500 nM; in data set [3], 1190 nM.

As to `Cc1ccc(NC(=O)N2CCC(CN3CCC(c4noc5cc(F)ccc45)CC3)CC2)cc1`, the values for the Ki in [1], in data set [2] and in [3] were 26.9 nM, 276 nM and 178 nM, respectively.

With `O=C(c1ccc(F)cc1)N1CCC(CN2CCC(c3noc4cc(F)ccc34)CC2)CC1`, the Ki in [1] amounted to 19 nM; in data set [2], 157 nM; in data set [3], 86.8 nM.

On to `O=C(C1CC1)N1CCC(CN2CCC(c3noc4cc(F)ccc34)CC2)CC1`, for which the Ki is 216 nM in data set [1], greater than 10000 nM in data set [2] and greater than 10000 nM in [3].

Take `O=C(Nc1ccc(Cl)cc1)N1CCC(CN2CCC(c3noc4cc(F)ccc34)CC2)CC1`: the values for the Ki in data set [1], in data set [2] and in data set [3] were 6.8 nM, 299 nM and 85.6 nM, respectively.

With `O=S(=O)(c1ccccc1)N1CCC(CN2CCC(c3noc4cc(F)ccc34)CC2)CC1`, the Ki in data set [1] is greater than 10000 nM; in data set [2] it was greater than 10000 nM; in [3] it was 2500 nM.

On to `O=C(/C=C/c1ccccc1)N1CCC(CN2CCC(c3noc4cc(F)ccc34)CC2)CC1`, for which the Ki in data set [1] was 2110 nM; in data set [2], greater than 10000 nM; in data set [3] it was greater than 10000 nM.

Take `O=S(=O)(c1ccc(F)cc1)N1CCC(CN2CCC(c3noc4cc(F)ccc34)CC2)CC1`: the Ki amounted to 368 nM in [1], 789 nM in [2] and 211 nM in data set [3].

As for `O=C(c1ccc([N+](=O)[O-])cc1)N1CCC(CN2CCC(c3noc4cc(F)ccc34)CC2)CC1`, the figures for the Ki in data set [1], in data set [2] and in data set [3] were 71.8 nM, 269 nM and 195 nM, respectively.

For the compound `O=C(NCc1ccccc1)N1CCC(CN2CCC(c3noc4cc(F)ccc34)CC2)CC1`, the Ki in [1] was 265 nM; in [2], greater than 10000 nM; in data set [3], 1270 nM.

As to `O=S(=O)(c1ccc2ccccc2c1)N1CCC(CN2CCC(c3noc4cc(F)ccc34)CC2)CC1`, the Ki in [1] worked out at 32.6 nM; in [2], 1200 nM; in data set [3], 1380 nM.

As to `O=[N+]([O-])c1ccccc1S(=O)(=O)N1CCC(CN2CCC(c3noc4cc(F)ccc34)CC2)CC1`, the results for the Ki in data set [1], in data set [2] and in [3] were 26.9 nM, 1010 nM and 590 nM, respectively.

On to `N#Cc1ccc(S(=O)(=O)N2CCC(CN3CCC(c4noc5cc(F)ccc45)CC3)CC2)cc1`, for which the figures for the Ki in data set [1], in data set [2] and in data set [3] were 113 nM, 479 nM and 190 nM, respectively.

On to `CN(C)C(=O)N1CCC(CN2CCC(c3noc4cc(F)ccc34)CC2)CC1`, for which the figures for the Ki in [1], in [2] and in [3] were 569 nM, greater than 10000 nM and greater than 10000 nM, respectively.

Consider `Cc1nc2n(c(=O)c1CCN1CCC(c3noc4cc(F)ccc34)CC1)CCCC2` [RISPERIDONE], for which the ED50 was 0.038 mg/kg in [4], 0.013 mg/kg in data set [5], 0.38 mg/kg in [6] and 0.012 mg/kg in [7].

As for `O=[N+]([O-])c1cccc(S(=O)(=O)N2CCC(CN3CCC(c4noc5cc(F)ccc45)CC3)CC2)c1`, the Ki in [1] came out at 135 nM; in [2], 917 nM; in data set [3] it was 759 nM.

Consider `O=[N+]([O-])c1ccc(S(=O)(=O)N2CCC(CCN3CCC(c4noc5cc(F)ccc45)CC3)CC2)cc1`, for which the Ki in data set [1] was 66.8 nM; in [2], 1370 nM; in data set [3] it was greater than 10000 nM.

In the case of `O=C(c1ccccc1)N1CCC(CN2CCC(c3noc4cc(F)ccc34)CC2)CC1`, the Ki in data set [1] was found to be 114 nM; in [2], 599 nM; in data set [3], 1270 nM.

For `O=S(=O)(c1cccs1)N1CCC(CN2CCC(c3noc4cc(F)ccc34)CC2)CC1`, the Ki in [1] is 455 nM; in data set [2], 165 nM; in data set [3], 1290 nM.

As for `O=[N+]([O-])c1ccc(S(=O)(=O)N2CCCC(CN3CCC(c4noc5cc(F)ccc45)CC3)C2)cc1` (stereo not drawn), the Ki turned out to be 30.1 nM in data set [1], 990 nM in [2] and 1100 nM in [3].

As to `CC(C)(C)C(=O)N1CCC(CN2CCC(c3noc4cc(F)ccc34)CC2)CC1`, the Ki in data set [1] was 310 nM; in data set [2], greater than 10000 nM; in data set [3], greater than 10000 nM.

As to `CN1CCN(C2=Nc3cc(Cl)ccc3Nc3ccccc32)CC1` [CLOZAPINE], the ED50 is 2.11 mg/kg in data set [5], 55.89 mg/kg in data set [6] and 4.52 mg/kg in [7].

As to `O=C(CCCN1CCC(O)(c2ccc(Cl)cc2)CC1)c1ccc(F)cc1` [HALOPERIDOL], the ED50 worked out at 0.14 mg/kg in data set [5], 0.47 mg/kg in [6] and 0.17 mg/kg in data set [7]. Moreover, the “Ratio ED50” value in data set [8] worked out at 2.8; in data set [9] it was 3.4.

For the compound `CCN(C)C(=O)N1CCC(CN2CCC(c3noc4cc(F)ccc34)CC2)CC1`, the figures for the Ki in [1], in [2] and in data set [3] were 1100 nM, greater than 10000 nM and greater than 10000 nM, respectively.

Broadly, the Ki is a dissociation constant, usually derived from enzyme kinetics or from competition with a known ligand. A higher Ki goes with a looser hold on the target. A word on the ED50: it is the dose at which the effect has come halfway, by size or by number of responders.
